pIC50: −log10 of the molar value. The source made the active and inactive calls. The rule behind the calls is not given here.
Key:
HeLa = experiment: Antiproliferative activity against human HeLa cells assessed as inhibition of cell growth incubated for 48 hrs by CCK-8 reagent based spectrophotometric analysis; assay type: functional
KYSE-150 cell line = experiment: Antiproliferative activity against human KYSE-150 cell line assessed as inhibition of cell growth incubated for 48 hrs by CCK-8 reagent based spectrophotometric analysis; assay type: functional; details: KYSE-150, 48 h
SMMC-7721 [1] = experiment: Antiproliferative activity against human SMMC-7721 cells assessed as inhibition of cell growth incubated for 48 hrs by CCK-8 reagent based spectrophotometric analysis; assay type: functional; details: SMMC-7721, 48 h
PC-3 = experiment: Antiproliferative activity against human PC-3 cells assessed as inhibition of cell growth incubated for 48 hrs by CCK-8 reagent based spectrophotometric analysis; assay type: functional; details: PC-3, 48 h
SW-620 = experiment: Antiproliferative activity against human SW620 cells assessed as inhibition of cell growth incubated for 48 hrs by CCK-8 reagent based spectrophotometric analysis; assay type: functional; details: SW-620, 48 h
HepG2 = experiment: Antiproliferative activity against human HepG2 cells assessed as inhibition of cell growth incubated for 48 hrs by CCK-8 reagent based spectrophotometric analysis; assay type: functional; details: HepG2, 48 h
MCF7 = experiment: Antiproliferative activity against human MCF7 cells assessed as inhibition of cell growth incubated for 48 hrs by CCK-8 reagent based spectrophotometric analysis; assay type: functional; details: MCF7, 48 h
A549 = experiment: Antiproliferative activity against human A549 cells assessed as inhibition of cell growth incubated for 48 hrs by CCK-8 reagent based spectrophotometric analysis; assay type: functional; details: A549, 48 h
[2] = Aqueous solubility of the compound in […] by HPLC analysis; assay type: physicochemical
SMMC-7721 [3] = experiment: Antitumor activity against human SMMC-7721 cells xenografted in BALB/c mouse assessed as reduction in tumor weight at 25 mg/kg,ip administrated 3 times weekly for 3 weeks (reference value: 0.573 +/- 0.137 g); assay type: functional
SMMC-7721 [4] = experiment: Antitumor activity against human SMMC-7721 cells xenografted in BALB/c mouse assessed as reduction in tumor weight at 25 mg/kg,ip administrated 3 times weekly for 3 weeks; assay type: functional, organism-based
SMMC-7721 [5] = experiment: Antitumor activity against human SMMC-7721 cells xenografted in BALB/c mouse assessed as inhibition of tumor growth at 25 mg/kg,ip administrated 3 times weekly for 3 weeks relative to control; assay type: functional; parameters: scale not given: the % may be the effect or the level left
SMMC-7721 [6] = experiment: Antitumor activity against human SMMC-7721 cells xenografted in BALB/c mouse assessed as reduction in tumor growth at 25 mg/kg,ip administrated 3 times weekly for 3 weeks; assay type: functional, organism-based

## C=C(C)[C@@H]1CC[C@]2(C(=O)O)CC[C@]3(C)[C@H](CC[C@@H]4[C@@]5(C)C[C@@H](Cc6cn([C@]7(CO)O[C@@H](n8ccc(O)nc8=O)[C@@H](F)[C@@H]7O)nn6)[C@H](O)C(C)(C)[C@@H]5CC[C@]43C)[C@@H]12
HeLa
  pIC50: < 4.00
KYSE-150 cell line
  pIC50: < 4.00
SMMC-7721 [1]
  pIC50: < 4.00
PC-3
  pIC50: < 4.00
SW-620
  pIC50: < 4.00
HepG2
  pIC50: < 4.00
MCF7
  pIC50: < 4.00
A549
  pIC50: < 4.00

## C=C(C)[C@@H]1CC[C@]2(C(=O)OC)CC[C@]3(C)[C@H](CC[C@@H]4[C@@]5(C)C[C@@H](Cc6cn([C@]7(CO)O[C@@H](n8ccc(O)nc8=O)[C@H](O)[C@@H]7O)nn6)C(=O)C(C)(C)[C@@H]5CC[C@]43C)[C@@H]12
HeLa
  pIC50: 4.56
KYSE-150 cell line
  pIC50: 4.44
SMMC-7721 [1]
  pIC50: 4.39
PC-3
  pIC50: 4.34
SW-620
  pIC50: 4.72
HepG2
  pIC50: 4.20
MCF7
  pIC50: 4.26
A549
  pIC50: 4.15

## C=C(C)[C@@H]1CC[C@]2(C(=O)O)CC[C@]3(C)[C@H](CC[C@@H]4[C@@]5(C)C[C@@H](Cc6cn([C@]7(CO)O[C@@H](n8ccc(N)nc8=O)[C@@H](F)[C@@H]7O)nn6)[C@H](O)C(C)(C)[C@@H]5CC[C@]43C)[C@@H]12
HeLa
  pIC50: < 4.00
KYSE-150 cell line
  pIC50: < 4.00
SMMC-7721 [1]
  pIC50: < 4.00
PC-3
  pIC50: < 4.00
SW-620
  pIC50: < 4.00
HepG2
  pIC50: < 4.00
MCF7
  pIC50: < 4.00
A549
  pIC50: < 4.00

## C=C(C)[C@@H]1CC[C@]2(C(=O)O)CC[C@]3(C)[C@H](CC[C@@H]4[C@@]5(C)C[C@@H](Cc6cn([C@]7(CO)O[C@@H](n8ccc(N)nc8=O)[C@H](O)[C@@H]7O)nn6)[C@H](O)C(C)(C)[C@@H]5CC[C@]43C)[C@@H]12
HeLa
  pIC50: 4.82
KYSE-150 cell line
  pIC50: 4.37
SMMC-7721 [1]
  pIC50: 4.77
PC-3
  pIC50: 4.06
SW-620
  pIC50: 4.55
HepG2
  pIC50: 4.14
MCF7
  pIC50: 4.21
A549
  pIC50: < 4.00

## C=C(C)[C@@H]1CC[C@]2(C(=O)O)CC[C@]3(C)[C@H](CC[C@@H]4[C@@]5(C)CC[C@H](O)C(C)(C)[C@@H]5CC[C@]43C)[C@@H]12 [BETULINIC ACID]
HeLa
  pIC50: 4.50
KYSE-150 cell line
  pIC50: 4.62
SMMC-7721 [1]
  pIC50: 4.36
PC-3
  pIC50: < 4.00
SW-620
  pIC50: 4.26
HepG2
  pIC50: 4.40
MCF7
  pIC50: 4.26
[2]
  solubility: < 0.11 µM
A549
  pIC50: 4.16

## C=C(C)[C@@H]1CC[C@]2(C(=O)O)CC[C@]3(C)[C@H](CC[C@@H]4[C@@]5(C)C[C@@H](Cc6cn([C@H]7C[C@H](n8cc(C)c(O)nc8=O)O[C@@H]7CO)nn6)[C@H](O)C(C)(C)[C@@H]5CC[C@]43C)[C@@H]12
HeLa
  pIC50: 4.79
KYSE-150 cell line
  pIC50: 5.12
SMMC-7721 [1]
  pIC50: 4.83
PC-3
  pIC50: 4.58
SW-620
  pIC50: 4.76
HepG2
  pIC50: 4.42
MCF7
  pIC50: 5.15
A549
  pIC50: 4.19

## Cc1cn([C@H]2C[C@H](N=[N+]=[N-])[C@@H](CO)O2)c(=O)[nH]c1=O [ZIDOVUDINE]
HeLa
  pIC50: < 4.00
KYSE-150 cell line
  pIC50: < 4.00
SMMC-7721 [1]
  pIC50: < 4.00
PC-3
  pIC50: < 4.00
SW-620
  pIC50: < 4.00
HepG2
  pIC50: < 4.00
MCF7
  pIC50: < 4.00
A549
  pIC50: 4.68

## C=C(C)[C@@H]1CC[C@]2(C(=O)O)CC[C@]3(C)[C@H](CC[C@@H]4[C@@]5(C)C[C@@H](Cc6cn([C@]7(CO)O[C@@H](n8ccc(O)nc8=O)[C@H](O)[C@@H]7O)nn6)[C@H](O)C(C)(C)[C@@H]5CC[C@]43C)[C@@H]12
HeLa
  pIC50: < 4.00
KYSE-150 cell line
  pIC50: < 4.00
SMMC-7721 [1]
  pIC50: < 4.00
PC-3
  pIC50: < 4.00
SW-620
  pIC50: < 4.00
HepG2
  pIC50: < 4.00
MCF7
  pIC50: < 4.00
A549
  pIC50: < 4.00

## C=C(C)[C@@H]1CC[C@]2(C(=O)OC)CC[C@]3(C)[C@H](CC[C@@H]4[C@@]5(C)C[C@@H](Cc6cn([C@]7(CO)O[C@@H](n8ccc(N)nc8=O)[C@@H](F)[C@@H]7O)nn6)C(=O)C(C)(C)[C@@H]5CC[C@]43C)[C@@H]12
HeLa
  pIC50: 4.55
KYSE-150 cell line
  pIC50: 4.72
SMMC-7721 [1]
  pIC50: 4.28
PC-3
  pIC50: < 4.00
SW-620
  pIC50: 4.51
HepG2
  pIC50: 4.16
MCF7
  pIC50: 4.21
A549
  pIC50: < 4.00

## C=C(C)[C@@H]1CC[C@]2(C(=O)OC)CC[C@]3(C)[C@H](CC[C@@H]4[C@@]5(C)C[C@@H](Cc6cn([C@]7(CO)O[C@@H](n8ccc(O)nc8=O)[C@H](O)[C@@H]7O)nn6)[C@H](O)C(C)(C)[C@@H]5CC[C@]43C)[C@@H]12
HeLa
  pIC50: 4.70
KYSE-150 cell line
  pIC50: 4.69
SMMC-7721 [1]
  pIC50: 4.43
PC-3
  pIC50: 4.39
SW-620
  pIC50: 4.59
HepG2
  pIC50: 4.35
MCF7
  pIC50: 4.58
A549
  pIC50: 4.27

## C=C(C)[C@@H]1CC[C@]2(C(=O)OC)CC[C@]3(C)[C@H](CC[C@@H]4[C@@]5(C)C[C@@H](Cc6cn([C@]7(CO)O[C@@H](n8ccc(N)nc8=O)[C@@H](F)[C@@H]7O)nn6)[C@H](O)C(C)(C)[C@@H]5CC[C@]43C)[C@@H]12
HeLa
  pIC50: 4.62
KYSE-150 cell line
  pIC50: 4.53
SMMC-7721 [1]
  pIC50: 4.15
PC-3
  pIC50: < 4.00
SW-620
  pIC50: 4.74
HepG2
  pIC50: 4.25
MCF7
  pIC50: 4.15
A549
  pIC50: < 4.00

## C=C(C)[C@@H]1CC[C@]2(C(=O)OC)CC[C@]3(C)[C@H](CC[C@@H]4[C@@]5(C)C[C@@H](Cc6cn([C@]7(CO)O[C@@H](n8ccc(O)nc8=O)[C@@H](F)[C@@H]7O)nn6)[C@H](O)C(C)(C)[C@@H]5CC[C@]43C)[C@@H]12
HeLa
  pIC50: 4.82
KYSE-150 cell line
  pIC50: 4.97
SMMC-7721 [1]
  pIC50: 4.61
PC-3
  pIC50: 4.63
SW-620
  pIC50: 4.82
HepG2
  pIC50: 4.43
MCF7
  pIC50: 4.63
A549
  pIC50: 4.44

## C=C(C)[C@@H]1CC[C@]2(C(=O)OC)CC[C@]3(C)[C@H](CC[C@@H]4[C@@]5(C)C[C@@H](Cc6cn([C@H]7C[C@H](n8cc(C)c(O)nc8=O)O[C@@H]7CO)nn6)[C@H](O)C(C)(C)[C@@H]5CC[C@]43C)[C@@H]12
HeLa
  pIC50: 4.69
KYSE-150 cell line
  pIC50: 5.11
SMMC-7721 [1]
  pIC50: 4.49
PC-3
  pIC50: 4.74
SW-620
  pIC50: 5.06
HepG2
  pIC50: 4.71
MCF7
  pIC50: 4.40
A549
  pIC50: 4.39

## C=C(C)[C@@H]1CC[C@]2(C(=O)OC)CC[C@]3(C)[C@H](CC[C@@H]4[C@@]5(C)C[C@@H](Cc6cn([C@]7(CO)O[C@@H](n8ccc(N)nc8=O)[C@H](O)[C@@H]7O)nn6)C(=O)C(C)(C)[C@@H]5CC[C@]43C)[C@@H]12
HeLa
  pIC50: 4.39
KYSE-150 cell line
  pIC50: 4.16
SMMC-7721 [1]
  pIC50: 4.16
PC-3
  pIC50: < 4.00
SW-620
  pIC50: 4.45
HepG2
  pIC50: < 4.00
MCF7
  pIC50: < 4.00
A549
  pIC50: < 4.00

## CC(=O)O[C@H]1C(=O)[C@@]2(C)[C@H]([C@H](OC(=O)c3ccccc3)[C@]3(O)C[C@H](OC(=O)[C@H](O)[C@@H](NC(=O)c4ccccc4)c4ccccc4)C(C)=C1C3(C)C)[C@]1(OC(C)=O)CO[C@@H]1C[C@@H]2O [PACLITAXEL]
SMMC-7721 [3]
  Activity: 0.22 g
SMMC-7721 [4]
  Activity: inactive
SMMC-7721 [5]
  Activity: 61.6%
SMMC-7721 [6]
  Activity: inactive

## C=C(C)[C@@H]1CC[C@]2(C(=O)OC)CC[C@]3(C)[C@H](CC[C@@H]4[C@@]5(C)C[C@@H](Cc6cn([C@]7(CO)O[C@@H](n8ccc(N)nc8=O)[C@H](O)[C@@H]7O)nn6)[C@H](O)C(C)(C)[C@@H]5CC[C@]43C)[C@@H]12
HeLa
  pIC50: 4.34
KYSE-150 cell line
  pIC50: 4.68
SMMC-7721 [1]
  pIC50: 4.17
PC-3
  pIC50: < 4.00
SW-620
  pIC50: 4.31
HepG2
  pIC50: 4.07
MCF7
  pIC50: 4.06
A549
  pIC50: < 4.00

Source: ChEMBL document CHEMBL5608177, “Antitumor activity and transcriptome sequencing (RNA-seq) analyses of hepatocellular carcinoma cells in response to exposure triterpene-nucleoside conjugates” (Eur J Med Chem, 2024)
